Among the test systems are DU-145 prostate; HS 578T breast; HT29 colon; MDA-MB-435; NCI/ADR-RES ovarian; OVCAR-4 ovarian; OVCAR-8 ovarian; SN12C renal; UACC-257 melanoma; UO-31 renal.
Holding throughout (assay): inhibition of tumour cell growth, NCI panel, 48 h

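How tested: cells in 96-well plates exposed to compound for 48 hours at five concentrations. GI50 = concentration required for 50% inhibition of growth. The concentration for full growth arrest is given as TGI.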

As for `COc1ccc(/C=C\c2cc(OC)c(OC)c(OC)c2)cc1OCC(=O)O`, the TGI in the assay with DU-145 prostate was 47.2 µM; in the assay on HS 578T breast it was 9.25 µM; with HT29 colon, greater than 100 µM; in the assay with MDA-MB-435, 3.27 µM; in the assay with NCI/ADR-RES ovarian, 5.39 µM; in the assay on OVCAR-4 ovarian, greater than 86.1 µM. The TGI in the assay with OVCAR-8 ovarian was greater than 58.2 µM; in the assay on SN12C renal, greater than 100 µM; in the assay with UACC-257 melanoma it was greater than 100 µM; in the assay with UO-31 renal it was greater than 94.8 µM.
With `O=C(Nc1ncc(Cc2cccc(C(F)(F)F)c2)s1)c1ccc2c(c1)OCCO2`, the GI50 is 0.35 µM in the assay with DU-145 prostate; 0.306 µM in the assay on HS 578T breast; 0.498 µM with HT29 colon; 0.0352 µM with MDA-MB-435; 0.251 µM in the assay on NCI/ADR-RES ovarian; 0.608 µM in the assay on OVCAR-4 ovarian. Besides, the GI50 in the assay with OVCAR-8 ovarian was 0.485 µM; with SN12C renal, 0.592 µM; with UACC-257 melanoma, 5.87 µM; in the assay with UO-31 renal, 1.09 µM. Moreover, the TGI is 14.8 µM in the assay on DU-145 prostate; greater than 66.4 µM with HS 578T breast; greater than 35.2 µM in the assay on HT29 colon; 0.172 µM in the assay with MDA-MB-435; 6.96 µM in the assay on NCI/ADR-RES ovarian; greater than 100 µM with OVCAR-4 ovarian. Also, the TGI in the assay on OVCAR-8 ovarian, with SN12C renal, in the assay with UACC-257 melanoma and with UO-31 renal was greater than 100 µM in each case.
In the case of `CO[C@@H]1CC[C@]2(C)OC[C@H](C)[C@@H]3C[C@@H](C)[C@@H](OC(C)=O)[C@@H]4[C@H]3[C@@H]2O[C@H]4C[C@@]1(C)O`, the GI50 with DU-145 prostate, in the assay with HS 578T breast, with HT29 colon, in the assay on MDA-MB-435, in the assay with NCI/ADR-RES ovarian and with OVCAR-4 ovarian was greater than 100 µM in each case. Besides, the GI50 in the assay on OVCAR-8 ovarian, in the assay on SN12C renal, in the assay with UACC-257 melanoma and in the assay with UO-31 renal was greater than 100 µM in each case. In addition, the TGI in the assay on DU-145 prostate, in the assay with HS 578T breast, in the assay on HT29 colon, with MDA-MB-435, in the assay with NCI/ADR-RES ovarian and in the assay with OVCAR-4 ovarian was greater than 100 µM each time. Besides, the TGI with OVCAR-8 ovarian, with SN12C renal, with UACC-257 melanoma and in the assay on UO-31 renal was greater than 100 µM in each case.
Take `Cc1nc2sccn2c1-c1nc2sccn2c1/C=C1/C(=O)Nc2ccccc21`: the GI50 in the assay on DU-145 prostate is 4.64 µM; in the assay on HS 578T breast it was 1.96 µM; with HT29 colon, 2.96 µM; in the assay on MDA-MB-435, 0.53 µM; in the assay on NCI/ADR-RES ovarian, 9.08 µM; in the assay with OVCAR-4 ovarian, 13.8 µM. For the same molecule, the GI50 with OVCAR-8 ovarian was 11.4 µM; in the assay on SN12C renal it was 16.8 µM; in the assay on UACC-257 melanoma it was 16.3 µM; in the assay on UO-31 renal, 4.93 µM. For the same molecule, the TGI with DU-145 prostate is 21.5 µM; in the assay with HS 578T breast, 9.75 µM; in the assay with HT29 colon, 10.7 µM; in the assay with MDA-MB-435, 2.52 µM; in the assay on NCI/ADR-RES ovarian, greater than 100 µM; in the assay on OVCAR-4 ovarian, greater than 100 µM. The TGI in the assay on OVCAR-8 ovarian was greater than 100 µM; in the assay with SN12C renal it was greater than 100 µM; in the assay on UACC-257 melanoma, 91.9 µM; in the assay with UO-31 renal, 89.7 µM.
As to `Cc1nc2c(Br)cc(Br)cc2c(=O)n1-c1nnc(-c2cccc(Cl)c2Cl)c(N)n1`, the GI50 in the assay on DU-145 prostate was 27.8 µM; in the assay on HS 578T breast, 16 µM; in the assay on HT29 colon, 30.3 µM; in the assay with MDA-MB-435, 3.8 µM; in the assay with NCI/ADR-RES ovarian, 13.6 µM; with OVCAR-4 ovarian, 84.5 µM. Further, the GI50 is 18.7 µM with OVCAR-8 ovarian, 19 µM in the assay with SN12C renal, 24.5 µM in the assay with UACC-257 melanoma and 31 µM in the assay with UO-31 renal. Moreover, the TGI in the assay with DU-145 prostate was greater than 100 µM; with HS 578T breast, 47.2 µM; in the assay with HT29 colon, greater than 100 µM; in the assay on MDA-MB-435 it was 14.3 µM; with NCI/ADR-RES ovarian, 37.5 µM; with OVCAR-4 ovarian, greater than 100 µM. The TGI is 60.7 µM in the assay on OVCAR-8 ovarian, 62 µM with SN12C renal, 65.1 µM with UACC-257 melanoma and greater than 100 µM in the assay with UO-31 renal.
On to `COc1nc(=O)n(C2C=CC(=O)O2)cc1F` (stereo not given), for which the GI50 in the assay on DU-145 prostate was 11.1 µM; with HS 578T breast, 13.4 µM; with HT29 colon it was 4.63 µM; in the assay with MDA-MB-435 it was 5.23 µM; in the assay with NCI/ADR-RES ovarian, 10.1 µM; in the assay on OVCAR-4 ovarian it was 3.09 µM. For the same molecule, the GI50 is 23.9 µM with OVCAR-8 ovarian, 11.6 µM in the assay with SN12C renal, 11.6 µM in the assay with UACC-257 melanoma and 5.18 µM in the assay with UO-31 renal. Moreover, the TGI with DU-145 prostate was found to be 28.2 µM; with HS 578T breast, 40.8 µM; in the assay on HT29 colon it was 16.7 µM; with MDA-MB-435, 27.6 µM; with NCI/ADR-RES ovarian, 37.4 µM; with OVCAR-4 ovarian it was 15.5 µM. The TGI in the assay with OVCAR-8 ovarian was greater than 100 µM; in the assay on SN12C renal it was 25.7 µM; in the assay on UACC-257 melanoma, 31.4 µM; in the assay on UO-31 renal it was 18.3 µM.
`COc1cc(/C=C2\CCCCC3=C2N=C2SC(C)=CN2C3c2cc(OC)c(OC)c(OC)c2)cc(OC)c1OC` (stereo not given): the GI50 is greater than 100 µM with DU-145 prostate; 16 µM in the assay with HS 578T breast; greater than 100 µM in the assay with HT29 colon; 24.3 µM with MDA-MB-435; 12 µM with NCI/ADR-RES ovarian; 12.3 µM in the assay on OVCAR-4 ovarian. The GI50 with OVCAR-8 ovarian is 11.9 µM; with SN12C renal, 61.8 µM; in the assay with UACC-257 melanoma, 0.403 µM; with UO-31 renal it was 22.6 µM. Besides, the TGI in the assay on DU-145 prostate, in the assay with HS 578T breast, in the assay on HT29 colon, in the assay with MDA-MB-435, in the assay on NCI/ADR-RES ovarian and in the assay with OVCAR-4 ovarian was greater than 100 µM each time. The TGI in the assay with OVCAR-8 ovarian, in the assay with SN12C renal, with UACC-257 melanoma and in the assay on UO-31 renal was greater than 100 µM in each case.

The values are drawn from PubChem BioAssay (NCI).
